The structures appear in SMILES notation. A value given as a limit tells only on which side of the number the result lay.

Data on 13 molecules can be found in US11370773B1, “Inhibiting human integrin (alpha-4) (beta-7)” (Morphic Therapeutic, Inc., priority 2019, dated 2022).

The experiment addresses T1, α4β7 (Homo sapiens, UniProt P13612+P26010).
T1 construct: α4β7 expressing cells (RPMI-8866); endogenous in cells; host or cells: RPMI 8866
T1 sequence (P13612 34-1032): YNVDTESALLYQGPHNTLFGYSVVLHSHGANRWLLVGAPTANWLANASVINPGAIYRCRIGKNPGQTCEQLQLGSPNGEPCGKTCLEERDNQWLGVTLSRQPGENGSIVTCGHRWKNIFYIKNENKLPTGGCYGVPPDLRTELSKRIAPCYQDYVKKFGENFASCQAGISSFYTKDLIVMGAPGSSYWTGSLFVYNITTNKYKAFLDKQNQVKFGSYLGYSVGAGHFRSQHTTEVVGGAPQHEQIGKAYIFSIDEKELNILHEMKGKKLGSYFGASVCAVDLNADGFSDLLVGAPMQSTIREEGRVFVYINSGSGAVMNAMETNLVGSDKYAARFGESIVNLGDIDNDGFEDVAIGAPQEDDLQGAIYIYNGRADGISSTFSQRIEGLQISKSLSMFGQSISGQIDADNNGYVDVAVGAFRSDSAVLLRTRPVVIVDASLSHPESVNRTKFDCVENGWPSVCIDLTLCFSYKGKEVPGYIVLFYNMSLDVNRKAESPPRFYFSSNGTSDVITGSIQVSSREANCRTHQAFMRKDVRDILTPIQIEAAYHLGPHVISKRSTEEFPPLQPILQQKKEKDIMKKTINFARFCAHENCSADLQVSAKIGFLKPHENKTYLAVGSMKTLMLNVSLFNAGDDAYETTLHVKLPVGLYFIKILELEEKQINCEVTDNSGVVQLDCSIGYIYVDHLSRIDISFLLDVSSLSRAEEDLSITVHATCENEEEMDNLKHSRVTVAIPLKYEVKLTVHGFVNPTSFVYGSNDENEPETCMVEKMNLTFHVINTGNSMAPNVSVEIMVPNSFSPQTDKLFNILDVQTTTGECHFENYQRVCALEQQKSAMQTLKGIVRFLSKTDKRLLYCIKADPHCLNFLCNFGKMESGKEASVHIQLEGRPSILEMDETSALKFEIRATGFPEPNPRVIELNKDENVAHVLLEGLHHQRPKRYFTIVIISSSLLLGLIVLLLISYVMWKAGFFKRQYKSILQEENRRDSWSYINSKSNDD
T1 sequence (P26010 20-798): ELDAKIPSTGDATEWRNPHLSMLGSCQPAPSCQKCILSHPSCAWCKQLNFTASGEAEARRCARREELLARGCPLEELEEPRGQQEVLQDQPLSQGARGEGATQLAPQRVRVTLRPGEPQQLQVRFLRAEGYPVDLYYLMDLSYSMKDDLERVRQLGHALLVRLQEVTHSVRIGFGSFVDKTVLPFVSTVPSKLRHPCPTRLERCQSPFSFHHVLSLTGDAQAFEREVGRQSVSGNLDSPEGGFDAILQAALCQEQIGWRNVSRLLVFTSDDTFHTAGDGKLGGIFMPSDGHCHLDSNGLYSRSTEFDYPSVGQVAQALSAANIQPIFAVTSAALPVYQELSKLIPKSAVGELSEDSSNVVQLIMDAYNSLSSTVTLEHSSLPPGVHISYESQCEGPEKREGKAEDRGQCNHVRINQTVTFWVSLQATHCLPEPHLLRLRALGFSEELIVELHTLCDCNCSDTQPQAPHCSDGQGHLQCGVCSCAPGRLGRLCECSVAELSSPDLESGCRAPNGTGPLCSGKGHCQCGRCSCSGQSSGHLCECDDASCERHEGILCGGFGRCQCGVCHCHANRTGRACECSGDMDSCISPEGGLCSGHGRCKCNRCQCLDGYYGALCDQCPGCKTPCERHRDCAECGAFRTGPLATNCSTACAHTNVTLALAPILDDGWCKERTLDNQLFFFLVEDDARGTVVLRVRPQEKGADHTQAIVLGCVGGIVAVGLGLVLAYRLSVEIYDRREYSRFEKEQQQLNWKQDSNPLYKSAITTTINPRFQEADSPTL
Put plainly: Cell-based ligand binding assay (LBA), RPMI 8866 cells in competition with soluble MAdCAM-1-Fc. Conditions: MAdCAM-1-Fc Dylight 650, flow cytometry, read-out: LB Assay (Example 6) IC50. On the procedure:
Three in vitro assays were used to examine the α4β7 mechanistic process used by cells: 1) ligand:receptor affinity, 2) the avidity of those interactions on a cell's surface, and 3) how those interactions fare under an imposing force. In Example 5, a Fluorescence Polarization (FP) assay is used to measure compound activity through binding competition with the fluorescein-labeled peptide. In Example 6, the potency of compounds against α4β7 is measured in the cell-based ligand binding assay (LBA), using RPMI 8866 cells incubated with the compound samples in competition with soluble MAdCAM-1 ligand. In Example 7, activity of compounds is evaluated in a cell adhesion assay that mechanistically tests what occurs in vivo when trafficking cells utilize α4β7 to adhere to MAdCAM-1 expressing HEVs of the gut during the extravasation process. In the cell adhesion assay of Example 7, a MAdCAM1-(Fc) is coated on plastic, and α4β7 expressing cells (RPMI-8866) are allowed to adhere to the coated surface in the presence of the test compounds. Next, the force of washing with buffer is applied to cells thereby testing the strength of that adhesion. Unattached cells are removed and the remaining adherent cells are quantified.
5 ul of 33 nM MAdCAM-1-Fc fluorescently labeled with Dylight 650 in 50 mM HEPES pH 7.3, 150 mM sodium chloride, and 1% bovine serum albumin was added to the cells. The samples were incubated for 45 minutes at room temperature, fixed with 0.8% formaldehyde for 30 minutes at room temperature, and washed with 50 mM Tris pH 7.5, 150 mM NaCl, 1 mM EDTA, and 1% bovine serum albumin. Fluorescence intensity for each cell was measured via flow cytometry. Dead cells were excluded from further analysis based on staining with the 780 fixable viability dye. Median fluorescence intensity for Dylight 650 was determined for each sample and concentration-response curves were analyzed for IC50 values using 4-parameter non-linear regression analysis.
On to `Cc1cc(F)c(C)c(C)c1-c1cc(C(F)(F)F)c(F)c([C@H](CC(=O)O)NC(=O)[C@H](CC(C)C)n2cc(CCN3CCC3)c(C(F)(F)F)cc2=O)c1F` [KT-P2, (3S)-3-(2-(5-(2-(azetidin-1-yl)ethyl)-2-oxo-4-(trifluoromethyl)pyridin-1(2H)-yl)-4-methylpentanamido)-3-(2,4,4′-trifluoro-2′,3′,6′-trimethyl-5-(trifluoromethyl)-[1,1′-biphenyl]-3-yl)propanoic Acid], for which the half-maximal inhibitory concentration (IC50) fell in the range of 10 to 500 nM.

For `Cc1cc(-c2c(C)cc(F)cc2C)cc([C@H](CC(=O)O)NC(=O)[C@H](CC(C)C)n2cc(CCN(C)C)cc(C(F)F)c2=O)c1F` [I-P2, (3S)-3-(4,4′-difluoro-2′,5,6′-trimethyl-[1,1′-biphenyl]-3-yl)-3-(2-(3-(difluoromethyl)-5-(2-(dimethylamino)ethyl)-2-oxopyridin-1(2H)-yl)-4-methylpentanamido)propanoic Acid], the half-inhibitory concentration (IC50) was not above 10 nM.

On to `Cc1cc(C)c(-c2cc(C)c(F)c([C@H](CC(=O)O)NC(=O)[C@H](CC(C)C)n3cc(CCCN(C)C)c(C(F)(F)F)cc3=O)c2F)c(C)c1F` [IW-P2, (3S)-3-(2-(5-(3-(dimethylamino)propyl)-2-oxo-4-(trifluoromethyl)pyridin-1(2H)-yl)-4-methylpentanamido)-3-(2,3′,4-trifluoro-2′,4′,5,6′-tetramethyl-[1,1′-biphenyl]-3-yl)propanoic Acid], for which the IC50 was in the range of 10 to 500 nM.

Turning to `Cc1cc(C)c(-c2cc(C(F)(F)F)c(F)c([C@H](CC(=O)O)NC(=O)[C@H](CC(C)C)n3cc(CCN4CCC4)c(C(F)(F)F)cc3=O)c2F)c(C)c1` [IG-P2, (3S)-3-(2-(5-(2-(azetidin-1-yl)ethyl)-2-oxo-4-(trifluoromethyl)pyridin-1(2H)-yl)-4-methylpentanamido)-3-(2,4-difluoro-2′,4′,6′-trimethyl-5-(trifluoromethyl)biphenyl-3-yl)propanoic Acid], the IC50 is 10 to 500 nM.

With `Cc1ccn([C@@H](CC(C)C)C(=O)N[C@H](CC(=O)O)c2cncc(-c3c(C)cccc3C)c2)c(=O)c1` [Example C-28, reference compound], the IC50 was 10 to 500 nM.

With `Cc1cc(C2CC2)cc(C)c1-c1cc(C(F)(F)F)c(F)c([C@H](CC(=O)O)NC(=O)[C@H](CC(C)C)n2cc(CCCN(C)C)c(C(F)(F)F)cc2=O)c1F` [HU-P2, (3S)-3-(4′-cyclopropyl-2,4-difluoro-2′,6′-dimethyl-5-(trifluoromethyl)-[1,1′-biphenyl]-3-yl)-3-(2-(5-(3-(dimethylamino)propyl)-2-oxo-4-(trifluoromethyl)pyridin-1(2H)-yl)-4-methylpentanamido)propanoic Acid], the IC50 was 10 to 500 nM.

Consider `Cc1cc(C)c(-c2cc(C(F)(F)F)c(F)c([C@H](CC(=O)O)NC(=O)[C@H](CC(C)C)n3cc(CCN(C)C)c(C(F)(F)F)cc3=O)c2F)c(C)c1` [IF-P2, (3S)-3-(2,4-difluoro-2′,4′,6′-trimethyl-5-(trifluoromethyl)-[1,1′-biphenyl]-3-yl)-3-(2-(5-(2-(dimethylamino)ethyl)-2-oxo-4-(trifluoromethyl)pyridin-1(2H)-yl)-4-methylpentanamido)propanoic Acid], for which the IC50 was 10 to 500 nM.

With `Cc1cc(C)c(-c2cc(C(F)(F)F)c(F)c([C@H](CC(=O)O)NC(=O)[C@H](CC(C)C)n3cc(CCCN(C)C)c(C(F)(F)F)cc3=O)c2F)c(C)c1` [HZ-P2, (3S)-3-(2,4-difluoro-2′,4′,6′-trimethyl-5-(trifluoromethyl)biphenyl-3-yl)-3-(2-(5-(3-(dimethylamino)propyl)-2-oxo-4-(trifluoromethyl)pyridin-1(2H)-yl)-4-methylpentanamido)propanoic Acid], the half-maximal inhibitory concentration (IC50) lay within 10 to 500 nM.

Take `Cc1ccc(F)c(C)c1-c1cc(C2CC2)c(F)c([C@H](CC(=O)O)NC(=O)[C@H](CC(C)C)n2cc(CCN3CCC3)c(C(F)(F)F)cc2=O)c1F` [HH-P2, (3S)-3-(2-(5-(2-(azetidin-1-yl)ethyl)-2-oxo-4-(trifluoromethyl)pyridin-1(2H)-yl)-4-methylpentanamido)-3-(5-cyclopropyl-2,3′,4-trifluoro-2′,6′-dimethyl-[1,1′-biphenyl]-3-yl)propanoic Acid]: the IC50 is not above 10 nM.

`Cc1cc(C)c(-c2cc(C3CC3)c(F)c([C@H](CC(=O)O)NC(=O)[C@H](CC(C)C)n3cc(CCN4CCC4)c(C(F)(F)F)cc3=O)c2F)c(C)c1` [HM-P2, (3S)-3-(2-(5-(2-(azetidin-1-yl)ethyl)-2-oxo-4-(trifluoromethyl)pyridin-1(2H)-yl)-4-methylpentanamido)-3-(5-cyclopropyl-2,4-difluoro-2′,4′,6′-trimethylbiphenyl-3-yl)propanoic Acid]: the IC50 is not above 10 nM.

As for `Cc1cc(-c2c(C)ccc(F)c2C)cc([C@H](CC(=O)O)NC(=O)C(CC(C)C)n2cc(CCN3CCC3)c(C(F)(F)F)cc2=O)c1F` (single isomer, unassigned) [AF-P2], the 50% inhibitory concentration (IC50) is not above 10 nM.

Take `Cc1ccn([C@@H](NC(C)C)C(=O)N[C@@H](CC(=O)O)c2cncc(-c3c(C)cccc3C)c2)c(=O)c1` [Example C-7, reference compound]: the half-maximal inhibitory concentration (IC50) was not above 10 nM.

Take `Cc1cc(F)cc(C)c1-c1cc(C(F)(F)F)c(F)c([C@H](CC(=O)O)NC(=O)[C@H](CC(C)C)n2cc(CCCN(C)C)c(C(F)(F)F)cc2=O)c1F` [HW-P2, (3S)-3-(2-(5-(3-(dimethylamino)propyl)-2-oxo-4-(trifluoromethyl)pyridin-1(2H)-yl)-4-methylpentanamido)-3-(2,4,4′-trifluoro-2′,6′-dimethyl-5-(trifluoromethyl)-[1,1′-biphenyl]-3-yl)propanoic Acid]: the half-maximal inhibitory concentration (IC50) was not above 10 nM.
